# Laboratory results taken from patent US20170258770A1, “Method for Topically Treating Actinic Keratosis on the Full Face or 250 cm2 on the Chest with Ingenol 3-(3,5-diethylisoxazole-4-carboxylate)” (LEO Laboratories Limited, priority 2014, published 2017).
# Key:
# dermal tumours = test: in vivo studies in mice, effects on dermal tumours; settings: compared with ingenol mebutate
# Text: The exact mechanism of action of ingenol 3-(3,5-diethylisoxazole-4-carboxylate) continues to be investigated, but it is believed that ingenol 3-(3,5-diethylisoxazole-4-carboxylate) has a dual mechanism of action inducing cell death as well as stimulation of immune response.
# actinic keratosis [1] = test: Part 1 dose escalation trial, once daily for two consecutive days, face/chest, actinic keratosis; format: in vivo, human subjects
# Text: Local skin reactions (LSRs) occur sometimes in the treated area. Often LSRs are quantified by a scale evaluating the following types of skin reactions: erythema, flaking/scaling, crusting, swelling, vasiculation/postulation, and erosion/ulceration which are categorized into categories 0-4 depending on the severity of the reactions.
# In the trial pre-defined grades of LSRs will constitute Dose Limiting Toxicity.
# Dose Limiting toxicity (DLT) is defined one or more of the following LSRs • crusting Grade 4 • Erosion/ulceration Grade 4 • vesiculation/postulation Grade 4 or
# Two or more of the following five LSRs: • Erythema Grade 4 • Crusting Grade 3 • Swelling grade 4 • Erosion/ulceration Grade 3 • vesiculation/postulation Grade 3 or • other clinically relevant signs or symptoms observed, which the Investigator judges to be counted as a DLT.
# Maximum tolerated dose (MTD) is declared as dose level at which less than 4 subjects out of experience a DLT of cohort of 12 subjects.
# Part 1 was a dose escalation study conducted with a once daily application of trial medication for two consecutive days and continued until the MTD was identified.
# Dose escalation proceeded if the safety and tolerability data of the subject up to day 8 was reviewed and considered satisfactory. The treatment consisted of once daily treatment for 2 consecutive days. Up to 5 different doses may be investigated in cohorts of 1 subject. The number of subjects in each cohort depended on the number of observed DLTs. However, the MTD was always be confirmed in a cohort of 12 subjects.
# To be included in the trial, Part 1, the subjects must be at least 18 years of age.
# Subjects who qualify for Part 1 of the trial must have 5 to 20 actinic keratosis on the face or chest. To be included in the trial part 2 the subjects must have 5-20 clinically typical, visible and discrete actinic keratosis on the face or chest
# Part 1: Trial medication, ingenol 3-(3,5-diethylisoxazole-4-carboxylate) gel, will be applied to the treatment area once daily for two consecutive days until the maximum tolerated dose has been reached for each formulation. Up to five different doses of active compound in gel may be investigated in cohorts 12 subjects. Predefined grades of Local Skin Responses (LSRs) will constitute dose limiting toxicity (DLT). The maximum tolerated dose is defined as the highest dose level at which less than 4 out of 12 subjects experience a Dose limiting toxicity.
# The doses will be administered in an escalating manner following review of safety and tolerability data performed by the dose escalation committee. Evaluation of the safety and tolerability data will be performed after Visit 5/day 8. Then subjects will be followed for 8 weeks after first application of investigational product.
# actinic keratosis [2] = test: Part 2 open-label trial, 0.018% gel once daily for three consecutive days, full face or 250 cm^2 chest, actinic keratosis; format: in vivo, human subjects; settings: 3 consecutive days
# Method: Part 2 is a study of the efficacy of the 0.018% dose identified in part 1 in a three day regimen.
# In contrast to other similar trials conducted, this trial allows inclusion in the trial of hypertrophic and hyperkeratotic lesion, and separately, the efficacy for these lesions are evaluated.
# The outcome for Part 2 is safety and efficacy in a once daily application for three consecutive days on the face/chest. The efficacy in treating of the AK will be measured as reduction in AK count in the treated area of lesions which are not considered hyperkeratotic/hypertrophic.
# The reduction in AK count will be performed at week 4 and 8 no matter the type of lesion. Also complete clearance of AKs in the treated area which are not considered hyperkeratotic/hypertrophic at week 8 will be measured.
# The trial medication applied is preferably a gel. The gel formulation comprises: isopropyl alcohol, hydroxyethyl cellulose, benzyl alcohol, citric acid monohydrate, sodium citrate dehydrate and water and active compound in a 0.018% concentration. For this particular trial, the dosing is two unit dose tubes daily, each containing 0.67 g.
# To qualify for part 2 of the trial, the subjects must have 5-20 clinically visible and discrete AKs within full face or 250 cm^2 area on the chest. In addition to the requirement of 5-20 clinically typical, visible and discrete AKs within the selected treatment area, subjects may also have visible and discrete hyperkeratotic/hypertrophic lesions in this area. The subjects will be treated with a dose of 0.018% as a once daily three consecutive days treatment and followed for 8 weeks.
# The trial consists of an initial part, where 18 subjects will be treated on face/chest. […] As this is a safety trial, it is considered justified to conduct this clinical trial as an open-label, uncontrolled trial. An early safety and tolerability evaluation will be performed following the 3 days treatment. If safety and tolerability is found acceptable by the Early Data Review Committee, and additional 44 subjects will be enrolled in order to expand safety observations and obtain an estimate of treatment efficacy.
# The patients are scheduled for 7 visits: • Visit 1: within 21 days prior to day 1 • Visit 2: day 1 (application of trial medication) • Visit 3: day 4 (application of trial medication) • Visit 4: day 8 (±2 day) • Visit 5: week 2 (±2 day) • Visit 6: week 4 (±4 day) • Visit 7: week 8 (±7 day)
# LSRs are evaluated at all visits following visit 1.
# LSRs are evaluated at all visits following visit 1. AK lesion counts are performed on Visit 2, 6 and 7.
# At Baseline (Day 1) and Visit 7 (Week 8), the investigator will make a clinical (visual and tactile) assessment of the extent of photo-damage in the treatment area with respect to 1) fine wrinkling, 2) coarse wrinkling, 3) mottled pigmentation, 4) roughness, 5) sallowness, 6) skin laxity, and 7) telangiectasia. Severity for each of these characteristics will be on a 5-point scale: None (0), Mild (1), Moderate (2), Severe (3), Extreme (4).
# At Visit 7 (Week 8) the Investigator will make an overall clinical (visual and tactile) assessment of the subject's photo-damage change from baseline in the treatment area (including an integrated assessment of fine wrinkling, coarse wrinkling, mottled pigmentation, roughness, sallowness, skin laxity, and telangiectasia based on the subject's appearance at the baseline visit).
# The scoring will be on a 7-point symmetric scale: Marked improvement (+3), Moderate improvement (+2), Minor improvement (+1), No change (0), Minor worsening (−1), Moderate worsening (−2), Marked worsening (−3).
# At Visit 7 (Week 8), the subjects will complete a self-assessment questionnaire evaluating the change in the 1) overall appearance of the skin and 2) overall feel of the skin after treatment. The scoring will be on a 5-point scale: Much worsened, Somewhat worsened, No change, somewhat improved, much improved. […]
# [3] = at 0.018% dose, two day regimen
smiles,measurement,setting,value
"CCc1noc(CC)c1C(=O)O[C@H]1C(C)=C[C@]23C(=O)[C@@H](C=C(CO)[C@@H](O)[C@]12O)[C@H]1[C@@H](C[C@H]3C)C1(C)C [ingenol 3-(3,5-diethylisoxazole-4-carboxylate)]",efficacy in eliminating dermal tumours,dermal tumours,more efficacious than ingenol mebutate
same,application site adverse events,actinic keratosis [1]; [3],minimal
same,local skin reactions (LSRs),actinic keratosis [1]; [3],mild
same,maximum tolerated dose (MTD),"actinic keratosis [1]; gel, once daily for 2 consecutive days, face/chest, MTD = highest dose with DLT in less than 4 of 12 subjects",0.018%
same,tolerability with respect to LSRs and application site reaction,"actinic keratosis [1]; selected dose 0.018%, two days dosing regimen",well tolerated
same,cosmetic outcome of the treatment,actinic keratosis [2],good
same,side-effects,actinic keratosis [2],acceptable
same,subjects reporting improvement in appearance and feel,actinic keratosis [2]; cosmetic outcome self-assessment,more than 90%
same,patients with photo damage improved,"actinic keratosis [2]; investigator assessment, fraction of patients",two-thirds
same,time at which side-effects maximize,actinic keratosis [2]; rapid decline thereafter,4 days
same,complete clearance,"actinic keratosis [2]; week 4, 63 patients",37%
same,reduction in AK count,"actinic keratosis [2]; week 4, 63 patients",81%
same,complete clearance,actinic keratosis [2]; week 8 (the same as week 4),37%
same,reduction in AK count,actinic keratosis [2]; week 8 (the same as week 4),81%
